Assay results published in patent publication US10596259B2, “Tumor radiosensitization with monomethyl auristatin E (MMAE) and derivatives thereof” (The Regents of the University of California, priority 2015, dated 2020).
Where “and” joins values, the source holds several entries; their conditions need not be identical. Equal entries are not always repeated. Entries after “also recorded” stand apart in the source; their conditions may differ. Where two headings read alike, the source gives them in different places. Non-standard residues stand in square brackets, D forms with d. Residues, ends and D or L forms follow the SMILES beside them. *: point of attachment. Dolaproine = CO[C@@H]([C@@H]1CCCN1)[C@@H](C)C(=O)O; Dil = CC[C@H](C)[C@H](NC)[C@@H](CC(=O)O)OC; X1 = C[C@@H](N*)[C@@H](O)c1ccccc1; NMeV = CN[C@H](C(=O)O)C(C)C

Legend:
LN-229 cells = assay: Alamar Blue cell viability assay; assay type: cell-based; settings: 72 hours
Procedure: Alamar Blue (resazurin) was added to the cells and allowed to incubate for 2 hrs at 37° C. Plates were analyzed using a plate reader with fluorescence measured at 560 nm.

HCT-116 cells [1] = assay: γH2Ax immunostaining (foci formation); assay type: cell-based, Human
Procedure: (§1) Cells were grown on glass cover slips were treated with indicated concentrations of MMAE overnight and then irradiated. Two hours post IR, cells were fixed in 4% paraformaldehyde. Samples were then permeabilized in 0.25% Triton X-100, blocked in 1% BSA, incubated with antibody to γH2Ax for 1 hr at room temperature, washed, and incubated in secondary antibody for 1 hour at room temperature. Samples were incubated for 1 minute in a 1:5000 dilution of DAPI to label nuclei. The number of foci per cell was counted. 6-8 high power fields were counted per each group.
(§2) Cells grown on glass coverslips were treated with MMAE overnight and then irradiated. Two hours after IR, cells were fixed, permeabilized, and stained with antibody to […]. Nuclei were stained with 4′,6-diamidino-2-phenylindole (DAPI). Foci were counted in 6 to 8 high-power fields per group.

PANC-1 cells [2] = assay: γH2Ax immunostaining (foci formation); assay type: cell-based, Human
Procedure: as §1, §2

HCT-116 cells [3] = assay: Clonogenic survival assay with IR; assay type: cell-based, Human
Procedure: (§3) Cells were treated with 0, 1, 2, or 5 nM of MMAE for 24 hours and then irradiated with 0, 2, or 6 Gy. Following IR, cells were counted, re-plated at varying cell numbers in drug free media. Colonies were counted […]. Colonies were then fixed and stained with crystal violet to quantify colonies.
(§4) Cells were treated with MMAE for 24 hours and then irradiated with 0 to 8 Gy. Following IR, cells were replated in drug-free media. Colonies formed over 10 to 14 days and were counted.

PANC-1 cells [4] = assay: Clonogenic survival assay with IR; assay type: cell-based, Human
Procedure: as §3, §4

779E cells = assay: Alamar Blue cell viability assay; assay type: cell-based, Human
Procedure: (§5) Cells were plated in 96 well plates at varying cell densities and exposed to range of concentrations of MMAE or paclitaxel for 72 hrs. Alamar Blue (also known as resazurin) was added to the cells and allowed to incubate for 2 hrs at 37° C. Plates were analyzed using a plate reader with fluorescence measured at 560 nm. For irradiated cells, cells were treated with MMAE overnight followed by 6 Gy.
(§6) Cells were plated in 96-well plates and exposed to MMAE or paclitaxel for 72 hours and analyzed at 560 nm. For irradiated cells, cells were treated with MMAE overnight followed by 6 Gy.

PANC-1 cells [5] = assay: Alamar Blue cell viability assay; assay type: cell-based, Human
Procedure: as §5, §6

Compound: CC[C@H](C)[C@@H]([C@@H](CC(=O)N1CCC[C@H]1[C@H](OC)[C@@H](C)C(=O)N[C@H](C)[C@@H](O)c1ccccc1)OC)N(C)C(=O)[C@@H](NC(=O)[C@@H](NC)C(C)C)C(C)C [MMAE, monomethyl auristatin E] (H-[NMeV]V[Dil][Dolaproine]-X1)
- IC50 (LN-229 cells): 3.8 nM
- γH2AX foci formation vs IR alone (HCT-116 cells [1]; MMAE pre-treatment, then IR): also seen in HCT-116 cells; also recorded: significantly increased
- DNA damage (γH2AX) (HCT-116 cells [1]; nonirradiated cells): did not alter DNA damage
- γH2AX foci formation vs IR alone (PANC-1 cells [2]; MMAE pre-treatment, then IR): further significant enhancement; also recorded: significantly increased
- γH2AX staining vs vehicle (PANC-1 cells [2]; non-irradiated cells): did not significantly increase; also recorded: did not alter DNA damage
- surviving fraction at 2 Gy (SF2) vs vehicle (HCT-116 cells [3]; 1 nM MMAE overnight): not significantly different
- clonogenic survival curve vs vehicle (HCT-116 cells [3]; 5 nM MMAE overnight, then irradiated, re-plated drug free): loss of the shoulder region of the survival curve at 2 Gy; also recorded: increased tumor cell kill at doses as low as 2 Gy
- surviving fraction at 2 Gy (SF2) vs vehicle (HCT-116 cells [3]; 2 and 5 nM MMAE overnight): significant reduction
- clonogenic survival curve vs vehicle (PANC-1 cells [4]; 2 nM MMAE overnight, then irradiated, re-plated drug free): loss of the shoulder region of the survival curve at 2 Gy; also recorded: increased tumor cell kill at doses as low as 2 Gy
- colony formation (PANC-1 cells [4]; 5 nM MMAE): Too few colonies formed
- surviving fraction at 2 Gy (SF2) vs vehicle (PANC-1 cells [4]; 1 or 2 nM MMAE overnight, 2 Gy): significantly reduced
- IC50 (779E cells; 72 hours exposure): 5.61 nM
- IC50 (779E cells; 72 hours exposure (Example 3)): 5.6 nM
- IC50 (PANC-1 cells [5]; 72 hours exposure (Example 3), read-out: IC50): 0.6 nM
- IC50 (PANC-1 cells [5]; 72 hours exposure, read-out: IC50): 0.6 nM
- IC50 (PANC-1 cells [5]; IR 6 Gy combined with MMAE (Example 3), read-out: IC50 for MMAE): 0.4 nM
- IC50 (PANC-1 cells [5]; MMAE alone, no IR, continuous exposure, viability at 72 hours, read-out: IC50 for MMAE): 0.81 nM
- IC50 (PANC-1 cells [5]; MMAE overnight then 6 Gy IR, continuous exposure, viability at 72 hours, read-out: IC50 for MMAE): 0.35 nM
- relative reduction in the IC50 of MMAE (PANC-1 cells [5]; MMAE with 6 Gy IR vs MMAE alone): > 50% and ~50%
- IC50 (PANC-1 cells [5]; non-irradiated (Example 3), read-out: IC50 for MMAE): 0.8 nM
